Laboratory results: patent publication US10086039B2, “Lamin A, an activator of longevity/anti-aging SIRT1 protein” (THE UNIVERSITY OF HONG KONG, priority 2012, dated 2018)

Experiments:
Gadd45α and catalase = Gadd45α and catalase expression in Zmpste24−/− BMSCs (Western blotting); assay type: cell-based, mouse
Description: (FIG. 4A) Resveratrol (10 μM) increased colony-forming capacity of Zmpste24^−/− BMSCs. Colony-forming assay was performed on freshly isolated bone marrow cells in 10 cm dishes in the presence and absence of resveratrol. (FIG. 4B) Colony number counting. […] Data represent mean±SEM, n=4. *P<0.05, RSV Vs Vehicle. (FIG. 4C) Left, level of prelamin A pull down by anti SIRT1 immunoprecipitates in BMSCs treated or untreated with resveratrol (2 μM) was determined by Immunoblotting; right, level of acetylated Foxo3a in resveratrol was assessed by Immunoblotting. (FIG. 4D) Levels of catalase and Gadd45α in SIRT1 or scramble siRNA treated Zmpste24^−/− BMSCs in the presence or absence of resveratrol (10 μM) determined by Western blotting. […] (FIG. 4F) Quantification of (FIG. 4E). […] (FIG. 4gG Levels of H3K9ac and IR-induced-H2AX with or without ectopic SIRT1 in wild-type and Zmpste24 null BMSCs were assessed by Western blotting. (FIG. 4H) Ectopic SIRT1 increased the colony-forming capacity of Zmpste24^−/− and wild-type BMSCs. Colony-forming assay was performed on freshly isolated cells in 6 cm dishes. (FIG. 4I) Quantification of (FIG. 4H). Data represent mean±SEM, n=5. *P<0.05, SIRT1 Vs Mock.
Western blotting was performed as described previously (Liu et al., 2005). Relative band intensity was measured by IMAGE J® and normalized to corresponding wild-type or untreated controls as indicated.

Zmpste24−/− mice [1] = experiment: Survival and body weight of Zmpste24−/− mice treated via drinking water; assay type: in vivo, mouse; details: resveratrol 20 μg/ml in drinking water
Description: (§1) Zmpste24^−/− mice have been described previously (Pendas et al., 2002). Mouse experimentation was performed in accordance with the guidelines of the Committee on the Use of Live Animals in Teaching and Research (CULATR) at the University of Hong Kong. New-born Zmpste24^−/− mice and wild-type controls were fed with resveratrol (20 μg/ml) or N-acetyl Cysteine (1 mg/ml) in drinking water. The survival of resveratrol-treated, NAC-treated, or vehicle-treated Zmpste24^−/− mice was recorded and their body weight was monitored weekly. The trabecular bone organization and bone mineral density were determined by micro-CT. The survival rate was analyzed by Kaplan-Meier method and statistical comparison was performed by Log-rank (Mantel-Cox) Test.
Briefly, resveratrol was supplemented at a concentration of 20 μg/ml in drinking water. Four months after treatment, BMSCs were collected for examination and comparison between resveratrol-treated and vehicle-treated Zmpste24^−/− mice.

Zmpste24−/− mice [2] = experiment: Micro-CT of trabecular bone and bone mineral density in Zmpste24−/− mice; assay type: in vivo, mouse; details: resveratrol 20 μg/ml in drinking water, 4 months
Description: as §1

AMPK [3] = experiment: AMPK activation at low doses of resveratrol; assay type: cell-based; details: low doses (2-10 μM)
Description: It was shown that low doses of resveratrol (≤25 μM) activates AMPK in a SIRT1-dependent manner, while high doses (≥50 μM) activate AMPK independent of SIRT1 (Baur et al., 2006; Price et al., 2012; Sun et al., 2007). In the present invention, low doses (2-10 μM) of resveratrol were used and activation of AMPK was not observed; therefore, it is postulated that the beneficial effects of resveratrol on BMSCs are primarily attributable to the activation of SIRT1.

SIRT1 = biological target: T1, SIRT1 (Homo sapiens, UniProt Q96EB6); details: cited from earlier work
T1 sequence (Q96EB6 1-747): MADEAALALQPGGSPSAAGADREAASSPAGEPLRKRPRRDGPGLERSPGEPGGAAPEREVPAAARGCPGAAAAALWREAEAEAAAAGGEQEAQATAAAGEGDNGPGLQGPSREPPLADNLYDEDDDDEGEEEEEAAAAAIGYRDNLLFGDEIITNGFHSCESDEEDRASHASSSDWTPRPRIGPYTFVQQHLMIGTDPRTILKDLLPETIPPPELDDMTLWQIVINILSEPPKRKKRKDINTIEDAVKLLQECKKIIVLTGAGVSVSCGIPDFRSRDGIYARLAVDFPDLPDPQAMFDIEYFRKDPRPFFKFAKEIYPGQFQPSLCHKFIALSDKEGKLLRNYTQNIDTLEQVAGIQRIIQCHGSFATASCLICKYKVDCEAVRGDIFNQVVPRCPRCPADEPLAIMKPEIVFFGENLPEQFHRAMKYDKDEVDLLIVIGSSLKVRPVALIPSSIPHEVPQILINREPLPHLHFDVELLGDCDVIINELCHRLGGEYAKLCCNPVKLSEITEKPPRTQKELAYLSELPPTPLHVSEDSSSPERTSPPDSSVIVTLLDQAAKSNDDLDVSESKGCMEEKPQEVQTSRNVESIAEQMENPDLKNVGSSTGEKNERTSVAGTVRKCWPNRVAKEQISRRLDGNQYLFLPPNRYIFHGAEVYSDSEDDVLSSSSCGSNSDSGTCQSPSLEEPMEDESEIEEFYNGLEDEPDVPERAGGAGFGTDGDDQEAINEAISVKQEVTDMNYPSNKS

AMPK [4] = details: cited from earlier work

Structure (SMILES): Oc1ccc(C=Cc2cc(O)cc(O)c2)cc1 [resveratrol]
- stimulating effect on expression of Gadd45α and catalase (Gadd45α and catalase; Zmpste24−/− BMSCs with SIRT1 knocked down): abolished the stimulating effect
- expression of Gadd45α and catalase (Gadd45α and catalase; Zmpste24−/− BMSCs, resveratrol 10 μM): increased
- animals still alive (Zmpste24−/− mice [1]; by 26 weeks after birth): ~60%
- body weight loss (Zmpste24−/− mice [1]; compared to vehicle-treated controls): significantly slowed down
- median survival (Zmpste24−/− mice [1]; vehicle 20 weeks): 27 weeks
- maximum lifespan (mean lifespan of the longest-lived 10% of the animals) (Zmpste24−/− mice [1]; vehicle 27.5 weeks): 33.5 weeks
- bone mineral density (Zmpste24−/− mice [2]): increased bone mineral density
- trabecular structural organization (Zmpste24−/− mice [2]): improved the structural organization
- trabecular thickness (Zmpste24−/− mice [2]): increased the trabecular thickness
- activation of AMPK (AMPK [3]): not observed
- SIRT1 activation towards full-length native target proteins, including p53 and PGC-1α (SIRT1; Beher 2009, Dai 2010, Pacholec 2010): do not confer any SIRT1 activation
- SIRT1 activity towards fluorophore-conjugated synthetic peptide (Ac-Arg-His-Lys-LysAc-AMC) rather than the unmodified one (SIRT1; Borra et al., 2005, Kaeberlein et al.): specifically enhances
- doses activating AMPK independent of SIRT1 (AMPK [4]; high doses): ≥ 50 µM
- doses activating AMPK in a SIRT1-dependent manner (AMPK [4]; low doses): ≤ 25 µM
